Results published in ChEMBL document CHEMBL3430912, “GSK Tres Cantos Anti-Kinetoplastid Screening (TCAKS) Data”.

Columns and labels:
Trypanosoma cruzi [1] = assay: (§1) GSK_TCAKS: pIC50 Trypanosoma cruzi Imaging: Amastigotes/Cell. […] Cells were then washed once with PBS before infection. T. cruzi trypomastigotes, collected at days 5 to 8 after infection from LLC-MK2 parasite infected cultures, were allowed to swim out for 4h at 37C from a centrifuged pellet (2,500 rpm/10 min/room temperature). Trypomastigotes were then collected and counted in a CASY Cell Counter. Trypomastigotes, in supplemented DMEM, were added to H9c2 cultures in a multiplicity of infection of 1 and incubated for 18 h. Cells were washed once with PBS before incubation of the infected H9c2 monolayer with trypsin (Life-Technologies) to detach cells from the flask. Cells were counted in a CASY Cell Counter using a 150 um capillary and their density set at 5 * 10^4 cells per mL in supplemented assay DMEM. Infected H9c2 were dispensed into 384-well poly-lysine coated assay plates at 50uL per well using a Multidrop Combi dispenser. After seeding them, the plates were incubated at 37C, 5% CO2 for 72h. Cultures were then fixed and stained by addition of 50 uL of a solution containing 8% formaldehyde and 4 uM DRAQ5 DNA dye (BioStatus, UK) per well. […] Five images were collected per well for reliable statistical analysis. Automated image analysis was performed with a script developed on Acapella High Content Imaging and Analysis Software (PerkinElmer). Output: number of amastigotes per cell as infection level measurement.; assay type: functional, organism-based, Rattus norvegicus; settings: H9c2, 4 h
[2] = test system: Trypanosoma brucei brucei; assay: GSK_TCAKS: pIC50 Trypanosoma brucei viability assay using fluorescence intensity. Assay plates (1536-well) were prepared by dispensing 25nL of compound solution per well using an Echo acoustic dispenser (Labcyte).; assay type: functional, organism-based; settings: Lister 427, 2 h
[3] = biological target: Sterol 14-alpha demethylase (Trypanosoma cruzi (strain CL Brener), UniProt Q7Z1V1); assay: GSK_TCAKS: pIC50 CYP51 from Trypanosoma cruzi.; assay type: functional
Sequence of Sterol 14-alpha demethylase (Q7Z1V1 whole entry): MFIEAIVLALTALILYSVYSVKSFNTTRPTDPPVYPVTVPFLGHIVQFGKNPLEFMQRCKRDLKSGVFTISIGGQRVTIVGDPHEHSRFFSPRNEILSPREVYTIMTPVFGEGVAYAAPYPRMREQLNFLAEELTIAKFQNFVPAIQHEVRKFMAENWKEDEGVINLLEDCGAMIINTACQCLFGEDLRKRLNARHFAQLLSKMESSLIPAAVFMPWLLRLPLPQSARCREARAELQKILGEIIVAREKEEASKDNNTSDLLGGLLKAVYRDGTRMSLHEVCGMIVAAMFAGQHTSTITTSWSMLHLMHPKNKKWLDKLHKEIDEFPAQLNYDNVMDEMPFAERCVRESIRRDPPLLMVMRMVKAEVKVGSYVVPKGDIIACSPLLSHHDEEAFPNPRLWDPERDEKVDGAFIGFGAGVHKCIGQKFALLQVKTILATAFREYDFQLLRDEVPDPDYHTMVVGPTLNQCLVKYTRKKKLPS

Trypanosoma cruzi [4] = assay: GSK_TCAKS: pIC50 Trypanosoma cruzi viability assay using beta-GAL activity. This assay was run at single shot at 5uM compound concentration per well. The biological reagents consisted of NIH-3T3 host cells and trypomastigotes parasitic cells; both cell types were set to a 3.3 * 10^5 cells/mL dilution in assay DMEM by means of a CASY cell counter device using a 60um capillary. 6 uL of the mixture were dispensed per well (about 1 * 10^3 host-cells and 1 * 10^3 parasites) with a Multidrop Combi dispenser. […] In all wells, the percentage of DMSO never exceeded 0.5%. Plates incubated for four days at 37C, 5% CO2. The substrate used for the assay fluorescence intensity (FLINT) readout was resorufin-beta-D-galactopiranoside (Sigma-Aldrich) at 5uM per well. It was diluted in PBS supplemented with the soft detergent Igepal (Fluka).; assay type: functional, organism-based, Mus musculus; settings: Tulahuen, NIH3T3
Leishmania donovani [5] = assay: (§2) GSK_TCAKS: pIC50 Leishmania donovani Imaging: THP-1 Host Macrophages. Assay plates (384-well) were prepared by adding 250nL of compound to each well. For single shot assay, the final compound concentration was 5 uM. […] Automated image analysis was performed with a script developed on Acapella High Content Imaging and Analysis Software (PerkinElmer). Output: THP-1 cell count were reported for each well.; assay type: functional, organism-based, Homo sapiens
NIH3T3 = assay: GSK_TCAKS: pIC50 NIH 3T3 cell line viability assay using luminiscence. Tissue culture surface treated assay plates (1536-well) were used. […] The 100% cells survival control was determined exposing the host-cells to a 0.5% DMSO concentration, whereas the 100% toxicity control was achieved by seeding the cells in presence of Amphotericin B at 50uM. Plates were incubated for four days at 37C, 5% CO2. The assay readout was developed by addition of 5uL of CellTiter-Glo Reagent following the manufacturer's instructions. Luminiscence was measured using a ViewLux.; assay type: functional, cell-based; settings: Mus musculus, NIH3T3, 96 h
Leishmania donovani [6] = assay: GSK_TCAKS: pIC50 Leishmania donovani viability assay using fluorescence intensity. Assay plates (1536-well) were prepared by adding 30nL per well of compound. For single shot assay, the final compound concentration was 5uM. […] Briefly, eGFP LdBOB axenic amastigotes were harvested, fixed and counted in a CASY cell counter (Roche-Applied Science). A final concentration of 1.5 * 10^5 cells per well were prepared in amastigote media containing 500 U/mL penicillin/streptomycin (Invitrogen) and 6uL was dispensed to each experimental well using a Multidrop Combi dispenser (Thermo Scientific). 6uL of assay media was dispensed to control columns used as reference for 100% compound response. Following incubation for 72 h at 37C, 5% CO2, 2 uL of resazurin was added to each well at a final concentration of 0.5 mM in phosphate buffered saline (PBS) with IGEPAL (Sigma-Aldrich), 0.05% (v/v).; assay type: functional, organism-based
[7] = GSK_TCAKS: pIC50 HepG2 human cell line viability assay using luminiscence. […] Seeding density was checked to ensure that new mono-layers were not more than 50% confluent at the time of harvesting. Cell suspension was added to 500 mL of the same medium at a final density of 1.2 * 10^5 cells/mL. This cell suspension was dispensed (25 uL, 3000 cells per well) into 384-well clear-bottom plates using a Multidrop Combi dispenser. Prior to addition of the cell suspension, the screening compounds (250 nL) were pre-dispensed into the plates with an Echo liquid handler. Plates were incubated for 48 h at 37C, 5% CO2. After incubation, plates equilibrated at room temperature for 30 min before proceeding to develop the luminescent signal. The signal developer, CellTiter-Glo Reagent, was allowed to equilibrate at room temperature for 30 min and added to the plates (25uL per well) using a Multidrop Combi dispenser. Plates were left for 10 min at room temperature for stabilization and then read using a ViewLux.; assay type: toxicity, cell-based
[8] = test system: Trypanosoma brucei brucei; assay: GSK_TCAKS: pIC50 Trypanosoma brucei viability assay using luminiscence. Assay plates (1536-well) were prepared. T. brucei cultures were harvested and counted in a CASY cell counter. A parasite suspension was prepared at a final concentration of 5 * 10^4 cells/mL in complete HMI9 medium and 6uL was dispensed to all wells containing compounds using a Multidrop Combi dispenser. 6uL of HMI9 media with 0.4% DMSO were dispensed to control columns. Plates were incubated for 24 h at 37C, 5% CO2 then tempered for 10 min at room temperature. ATP content was quantified by adding 4 uL of CellTiter-Glo Reagent (Promega) according to the manufacturer's instructions. Luminescence was measured using a ViewLux.; assay type: functional, organism-based; settings: Lister 427, CASY
Leishmania donovani [9] = assay: as §2, with “Infected” for “THP-1 Host”, “Percent of infected macrophage cells” for “THP-1 cell count”; assay type: functional, organism-based, Homo sapiens; settings: THP-1
Trypanosoma cruzi [10] = assay: as §1, with “H2C9” for “Trypanosoma cruzi”, “H9c2 Host Cardiomyocytes.” for “Amastigotes/Cell.”, “Number” for “number”, “H9c2 Host Cardiomyocytes nuclei to determine drug-related cytotoxicity.” for “amastigotes per cell as infection level measurement.”; assay type: functional, organism-based, Rattus norvegicus; settings: H9c2, 4 h
Trypanosoma cruzi [11] = assay: GSK_TCAKS: pIC50 Trypanosoma cruzi Imaging: Infected Cells. […] Cells were then washed once with PBS before infection. T. cruzi trypomastigotes, collected at days 5 to 8 after infection from LLC-MK2 parasite infected cultures, were allowed to swim out for 4h at 37C from a centrifuged pellet (2,500 rpm/10 min/room temperature). Trypomastigotes were then collected and counted in a CASY Cell Counter. Trypomastigotes, in supplemented DMEM, were added to H9c2 cultures in a multiplicity of infection of 1 and incubated for 18 h. Cells were washed once with PBS before incubation of the infected H9c2 monolayer with trypsin (Life-Technologies) to detach cells from the flask. Cells were counted in a CASY Cell Counter using a 150 um capillary and their density set at 5 * 10^4 cells per mL in supplemented assay DMEM. Infected H9c2 were dispensed into 384-well poly-lysine coated assay plates at 50uL per well using a Multidrop Combi dispenser. After seeding them, the plates were incubated at 37C, 5% CO2 for 72h. Cultures were then fixed and stained by addition of 50 uL of a solution containing 8% formaldehyde and 4 uM DRAQ5 DNA dye (BioStatus, UK) per well. […] Five images were collected per well for reliable statistical analysis. Automated image analysis was performed with a script developed on Acapella High Content Imaging and Analysis Software (PerkinElmer). Output: percentage of infected cells per well as a second infection marker.; assay type: functional, organism-based, Rattus norvegicus; settings: H9c2, 4 h
Leishmania donovani [12] = assay: as §2, with “Amastigotes/Macrophages.” for “THP-1 Host Macrophages.”, “Average number of amastigotes per macrophage” for “THP-1”, “cell” for “cell count”; assay type: functional, organism-based, Homo sapiens; settings: THP-1

Structure (SMILES) | IC50 (Trypanosoma cruzi [1]) [µM] | IC50 [2] [µM] | IC50 [3] [µM] | IC50 (Trypanosoma cruzi [4]) [µM] | IC50 (Leishmania donovani [5]) [µM] | IC50 (NIH3T3) [µM] | IC50 (Leishmania donovani [6]) [µM] | IC50 at 48 h [7] [µM] | IC50 [8] [µM] | IC50 (Leishmania donovani [9]) [µM] | IC50 (Trypanosoma cruzi [10]) [µM] | IC50 (Trypanosoma cruzi [11]) [µM] | IC50 (Leishmania donovani [12]) [µM]
COc1ccc(-c2nc3ccncc3c(=O)n2CCOc2ccccc2)cc1 | 0.398 | 25.1 | 0.0398 | 0.631 | > 50.1 | 31.6 | 39.8 | > 100 | 31.6 | > 50.1 | > 50.1 | 0.398 | > 50.1
CNc1cncc(C2CCCN2C(=O)Cc2coc3cc(C)ccc23)n1 (centres undefined) | 0.2 | > 39.8 | 0.0251 | 0.158 | > 50.1 | > 50.1 | 3.16 | > 100 | > 39.8 | > 50.1 | > 50.1 | 0.2 | 0.794
CC(=O)Nc1nc(-c2cc(C)ccc2C)c(C)s1 | 0.158 | > 39.8 | > 100 | 0.2 | > 50.1 | 25.1 | > 50.1 | > 100 | > 39.8 | > 50.1 | > 50.1 | 0.2 | 31.6
O=c1ccc2ccc(F)c3c2n1C[C@H]3CN1CCC(NCc2cc3ccccc3o2)CC1 | 0.126 | 0.631 | 31.6 | 0.398 | 31.6 | 20 | 15.8 | 39.8 | 2 | 20 | 31.6 | 0.2 | 12.6
COc1ccc(-c2cc(C)no2)cc1S(=O)(=O)Nc1ccc(F)c(Cl)c1 | 3.98 | 15.8 | > 100 | 1.58 | 31.6 | 25.1 | 25.1 | 79.4 | 25.1 | 25.1 | 50.1 | 3.16 | 20
O=C(NCCc1ccccn1)C(c1cn[nH]c1)N1CCN(c2ccc(Cl)c(Cl)c2)CC1 (centres undefined) | 0.126 | 12.6 | 0.126 | 0.1 | > 50.1 | 31.6 | 2.51 | > 100 | > 39.8 | > 50.1 | > 50.1 | 0.158 | 20
CC1CN(S(=O)(=O)c2ccc(NC(=O)c3cc(C4CC4)nc4c3cnn4C(C)C)cc2)CC(C)O1 (centres undefined) | 0.631 | 6.31 | > 100 | 0.631 | 10 | > 50.1 | 20 | > 100 | 6.31 | > 50.1 | > 50.1 | 0.794 | > 50.1
NC(=O)c1ccc(-c2cccc(OCCN3CCN(C4CCCCC4)CC3)c2)cc1 | 0.794 | 15.8 | 39.8 | 1.58 | 31.6 | 15.8 | > 50.1 | 50.1 | 15.8 | 50.1 | > 50.1 | 1.58 | 10
